Source: US20260258050A1, “IMMUNOMODULATOR” (HITGEN INC., priority 2023, published 2026)

How the values were obtained:
Human IL-17A [1] = biological target: T1, Human IL-17A (Homo sapiens, UniProt Q16552); assay: IL-17A enzyme-linked immunosorbent assay (competitive ELISA, IL-17A/IL-17Ra receptor-ligand binding); set-up: purchased Sino Biological Inc. 12047-H07B; conditions: human IL-17A coated plate, human IL-17Ra, read-out: IC50, inhibitory activity of compounds on human IL-17A
T1 sequence (Q16552 20-155 limits assumed): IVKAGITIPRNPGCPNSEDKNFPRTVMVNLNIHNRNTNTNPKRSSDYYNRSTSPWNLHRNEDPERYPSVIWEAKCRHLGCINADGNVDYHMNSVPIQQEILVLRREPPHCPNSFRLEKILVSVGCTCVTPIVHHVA
Protocol: Experimental Example 1 IL-17A Enzyme-Linked Immunosorbent Assay (ELISA)
The inhibitory effects of human IL-17A inhibitors on receptor-ligand binding were quantitatively determined by a competitive enzyme-linked immunosorbent assay (ELISA). The ELISA was performed through the following steps.
Human IL-17A (Sino Biological Inc., Cat #12047-H07B) was diluted with coating buffer (50 mM phosphate-buffered saline (PBS), pH 7.4) to give an IL-17A concentration of 0.2 μg/ml. 100 μL of the resulting solution was added to each well of a 96-well plate, and the plate was incubated at 37° C. for 30 min. In a blank group, 100 100 μL of the coating buffer was added instead of the IL-17A solution.
The plate was washed four times with 10 mM phosphate-buffered saline containing 0.05% Tween-20 (PBST, pH 7.4). 200 μL of PBST was used per well for each wash. After the final wash, the plate was tapped dry on absorbent paper.
Fresh 5% (w/v) skim milk solution was prepared before the experiment. For example, 5 g of skim milk powder (Bio-Rad, 170-6404) was completely dissolved in 100 mL of 10 mM PBST. 200 μL of the 5% (w/v) skim milk solution was added to each well, and the plate was incubated on a shaker at 25° C. for 30 min.
(S4) Preparation of 100× to-be-Tested Compound Solutions
During step (S3), the to-be-tested compound solutions were prepared, respectively. Each powdered compound was dissolved in dimethyl sulfoxide (DMSO) to reach a storage concentration of 10 mM. The to-be-tested compound solutions were then serially diluted four-fold with DMSO to obtain nine storage concentrations ranging from […].
(S6) Pre-incubation of IL-17A with to-be-tested compound solutions
89 μL of PBST and 1 μL of each of the to-be-tested compound solutions were added to each well and mixed. The plate was pre-incubated at 25° C. for 10 min. In the blank group and the control group, 1 μL of DMSO was added instead of the to-be-tested compound solutions.
(S7) Incubation with Human Interleukin-17 Receptor a (IL-17Ra)
10 μL of 16 nM human IL-17Ra (Sino Biological Inc., Cat #10895-H03H) was added, followed by incubation on a shaker at 25° C. for 30 min. The receptor solution was prepared in 10 mM PBST.
(S9) Incubation with Horseradish Peroxidase-Conjugated Antibody
100 μL of mouse anti-Fc tag horseradish peroxidase (HRP)-conjugated antibody (Sino Biological Inc., Cat #10702-MM01T-H) was added to each well. The plate was incubated on a shaker at 25° C. for 30 min. The antibody was diluted with 5% (w/v) skim milk solution at 1:5,000 (v/v).
100 μL of 3,3′,5,5′-tetramethylbenzidine (TMB) substrate solution (BD, Cat #555214) was added to each well. Substrate A and substrate B were freshly mixed at a volume ratio of 1:1 before use. The plate was incubated in the dark at 25° C. for 5-15 min.
(S12) Termination and Detection
The color reaction was terminated by addition of 2.5 M hydrochloric acid (HCl). Absorbance was measured at 450 nm using a BMG PHERStar microplate reader.
(S13) Calculation of Half-Maximal Inhibitory Concentration (IC50)
The relative percent residual activity at each compound concentration was calculated according to Equation 1. The IC50 value of each test compound was then calculated in GraphPad 6 using the equation for log(inhibitor) versus normalized response with variable slope, as shown in Equation 2.
relative percent residual activity (%)=[(absorbance of sample−absorbance of blank group)/(absorbance of control group−absorbance of blank group)]%. Equation 1: […]
The compounds prepared in the above examples were tested for IL-17A inhibitory activity according to the above method.

Human IL-17A [2] = biological target: T1, Human IL-17A; assay: Inhibition of human IL-17A protein-induced GROα/CXCL1 production in HT-29 cells; format: cell-based; set-up: purchased R&D 317-ILB; host or cells: added exogenously to HT-29 cells; conditions: 30 ng/mL human IL-17A protein, 48 h, GROα in supernatant by ELISA kit, read-out: Inhibitory IC50 of compounds on HT-29 cell GROα/CXCL1
Protocol: Experiment Example 3 Inhibition of Human IL-17A Protein-Induced GROα/CXCL1 Production in HT-29 Cells by Compounds
This assay was conducted to evaluate the ability of the compounds to inhibit human IL-17A protein-induced production of the chemokine growth-regulated oncogene alpha/C-X-C motif chemokine ligand 1 (GROα/CXCL1) in HT-29 cells.
Human colorectal adenocarcinoma epithelial HT-29 cells (Chengdu Zhongyuan Gongchuang Technology Co., Ltd.) were seeded into a 96-well plate at a density of 5×10^4 cells per well and were cultured overnight in an incubator at 37° C.
30 ng/mL of human IL-17A protein (R&D, #317-ILB) was mixed with gradient concentrations of the IL-17A small-molecule inhibitor, or with […] of a positive control IL-17A antibody (R&D, #AF-317-NA). These mixtures were incubated at 37° C. for 1 h and were then added to the plate. The mixtures were co-incubated with the HT-29 cells at 37° C. for 48 h. Thereafter, the level of GROα in the cell culture supernatant was determined using a GROα ELISA kit (Cisbio, #62HCXC1PEG).
The inhibitory activity of each compound was expressed as the half-maximal inhibitory concentration (IC50) for inhibition of GROα/CXCL1 production in HT-29 cells.

Structure (SMILES) | IC50 (Human IL-17A [1]) [nM] | IC50 (Human IL-17A [2]) [nM]
CSCC(C)n1nccc1C(=O)N[C@H](C(=O)Nc1cc2c(cc1F)-c1c(n[nH]c1C)CCOC2)C(C1CC1)C1CC1 (single isomer, unassigned) [compound 40a] | 50 to 150 | 100 to 500
CCC1Cc2n[nH]c(C)c2-c2cc(F)c(NC(=O)[C@@H](NC(=O)c3ccnn3C(C)C)C(C3CC3)C3CC3)cc2CO1 (single isomer, unassigned) [compound 120b] | ≤ 50 | 100 to 500
CCC(C)n1nccc1C(=O)N[C@H](C(=O)Nc1cc2c(cc1F)-c1c(n[nH]c1C)CCOC2)C(C1CC1)C1CC1 (single isomer, unassigned) [compound 123a] | ≤ 50 | 100 to 500
CCC(C)n1nccc1C(=O)N[C@H](C(=O)Nc1cc2c(cc1F)-c1c(n[nH]c1C)CCOC2)C(C1CC1)C1CC1 (single isomer, unassigned) [compound 123b] | ≤ 50 | 100 to 500
Cc1[nH]nc2c1-c1cc(F)c(NC(=O)[C@@H](NC(=O)c3ccnn3C(C)C)C(C3CC3)C3CC3)cc1C(=O)NC(C)C2 (single isomer, unassigned) [compound 187b] | – | ≤ 100
Cc1[nH]nc2c1-c1cnc(NC(=O)[C@@H](NC(=O)c3ccnn3C(C)C(F)F)C(C3CC3)C3CC3)cc1COCC2 (single isomer, unassigned) [compound 190a] | ≤ 50 | 100 to 500
Cc1c2c(nn1COCC[Si](C)(C)C)CC(=O)N(Cc1ccccc1)Cc1cc(N)c(F)cc1-2 [compound 183] | – | 100 to 500
Cc1[nH]nc2c1-c1cnc(NC(=O)[C@@H](NC(=O)/C(F)=C\C3CC3)C(C3CC3)C3CC3)cc1CN(C1CC1)CC2 [compound 221] | ≤ 50 | –
Cc1[nH]nc2c1-c1cc(F)c(NC(=O)[C@@H](NC(=O)c3cccc(-c4ccn[nH]4)c3)C(C3CC3)C3CC3)cc1COCC2 [compound 228] | ≤ 50 | –
Cc1[nH]nc2c1-c1cnc(NC(=O)[C@@H](NC(=O)c3cnnn3C(C)C)C(C3CC3)C3CC3)cc1COCC2 [compound 243] | ≤ 50 | –
Cc1[nH]nc2c1-c1cnc(NC(=O)[C@@H](NC(=O)OC3CCC3)C(C3CC3)C3CC3)cc1COCC2 [compound 247] | 50 to 150 | –

Now from value to compound:

IC50 (Human IL-17A [1]) [nM] | IC50 (Human IL-17A [2]) [nM] | Structure (SMILES)
≤ 50 | ≤ 100 | Cc1[nH]nc2c1-c1cc(F)c(NC(=O)[C@@H](NC(=O)c3ccnn3C(C)C)C(C3CC3)C3CC3)cc1CN(CC(F)F)C(C)C2 (mixture of isomers) [compound 178]
≤ 50 | 100 to 500 | CSCC(C)n1nccc1C(=O)N[C@H](C(=O)Nc1cc2c(cc1F)-c1c(n[nH]c1C)CCOC2)C(C1CC1)C1CC1 (single isomer, unassigned) [compound 40b]
50 to 150 | 100 to 500 | CCC1Cc2n[nH]c(C)c2-c2cc(F)c(NC(=O)[C@@H](NC(=O)c3ccnn3C(C)C)C(C3CC3)C3CC3)cc2CO1 (single isomer, unassigned) [compound 120a]
– | ≤ 100 | Cc1[nH]nc2c1-c1cc(F)c(NC(=O)[C@@H](NC(=O)c3ccnn3C(C)C)C(C3CC3)C3CC3)cc1C(=O)NC(C)C2 (single isomer, unassigned) [compound 187a]
50 to 150 | 100 to 500 | Cc1[nH]nc2c1-c1cnc(NC(=O)[C@@H](NC(=O)c3ccnn3C(C)C(F)F)C(C3CC3)C3CC3)cc1COCC2 (single isomer, unassigned) [compound 190b]
≤ 50 | – | Cc1[nH]nc2c1-c1cnc(NC(=O)[C@@H](NC(=O)c3cnnn3C(C)C)C(C3CC3)C3CC3)cc1CN(C1CC1)CC2 [compound 220]
≤ 50 | – | Cc1[nH]nc2c1-c1cnc(NC(=O)[C@@H](NC(=O)/C(F)=C\C(C)C)C(C3CC3)C3CC3)cc1CN(C1CC1)CC2 [compound 222]
≤ 50 | – | CC(C)=C(F)C(=O)N[C@H](C(=O)Nc1cc2c(cn1)-c1c(n[nH]c1C)CCN(C1CC1)C2)C(C1CC1)C1CC1 [compound 223]
≤ 50 | – | C=C(F)C(=O)N[C@H](C(=O)Nc1cc2c(cn1)-c1c(n[nH]c1C)CCN(C1CC1)C2)C(C1CC1)C1CC1 [compound 224]
≤ 50 | – | Cc1[nH]nc2c1-c1cc(F)c(NC(=O)[C@@H](NC(=O)c3cnnn3C(C)C)C(C3CC3)C3CC3)cc1COCC2 [compound 231]
